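These data come from cells grown in 96-well plates and exposed to compound for 48 hours at five concentrations. TGI: concentration producing complete growth inhibition.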
Experiments:
Test in all cases: NCI-60 cell line screen, 48 h
A549 NSCLC = system: A549 NSCLC
MDA-N = system: MDA-N
HCT-116 colon = system: HCT-116 colon
PC-3 prostate = system: PC-3 prostate
SN12C renal = system: SN12C renal
HS 578T breast = system: HS 578T breast
UACC-257 melanoma = system: UACC-257 melanoma
NCI-H460 lung = system: NCI-H460 lung
TK-10 renal = system: TK-10 renal
MOLT-4 leukemia = system: MOLT-4 leukemia

Compound	TGI (A549 NSCLC) [µM]	TGI (MDA-N) [µM]	TGI (HCT-116 colon) [µM]	TGI (PC-3 prostate) [µM]	TGI (SN12C renal) [µM]	TGI (HS 578T breast) [µM]	TGI (UACC-257 melanoma) [µM]	TGI (NCI-H460 lung) [µM]	TGI (TK-10 renal) [µM]	TGI (MOLT-4 leukemia) [µM]
Cc1cc(C(C)(C)C)c(OCCCN2CCOCC2)c(C(C)(C)C)c1	32.5	34	31.4	29.9	33	38.6	32	> 100	36.2	33.7
O=[N+]([O-])c1ccc(-c2nc3ccccc3o2)cc1	> 100	> 100	> 100	> 100	> 100	> 100	> 100	> 100	> 100	> 100
CN(NC(=O)/C(=C/C=C/c1ccccc1)NC(=O)c1ccccc1)C1=C(Cl)C(=O)[N+](c2ccccc2)=CC1	93.8	37.5	45.7	> 100	66	> 100	> 100	> 100	> 100	81.9
C[C@@H](CC(O)C(O)C(C)(C)O)C1CCC23CC12CCC1[C@@]2(C)CCC(=O)C(C)(C)C2CC(OC2OC(CO)C(O)C(O)C2O)[C@]13C (stereo partly specified)	> 10	> 10	> 10	> 10	> 10	> 10	–	> 10	> 10	> 10
Cc1nc(-c2ccc(Cl)cc2)cn2c1nc1ccccc12	> 100	> 100	> 100	> 100	> 100	> 100	> 100	> 100	> 100	> 100
CCn1c2ccccc2c2cc(NC(=O)c3c(C)[nH]c(=O)[nH]c3=S)ccc21	–	> 100	> 100	> 100	> 100	> 100	> 100	> 100	> 100	> 100
CC1=C(C(=O)OC(C)C)C(c2cccc([N+](=O)[O-])c2)C(C(=O)OC(CO[N+](=O)[O-])CO[N+](=O)[O-])=C(C)N1 (stereo unspecified)	> 100	8.71	9.36	> 32.6	> 34	> 41.9	13.3	> 36.7	> 100	3.76
CCOC(=O)Cn1c(C)nc2nn(Cc3ccccc3)cc2c1=O	> 100	> 100	> 100	> 100	> 100	> 100	–	> 100	> 100	> 100
Cc1cc2nnn(C3CCCO3)c2cc1C (stereo unspecified)	> 100	> 100	> 100	> 100	> 100	> 100	> 100	> 100	> 100	> 100
O=c1[nH]nc(Cc2ccc([N+](=O)[O-])cc2)[nH]1	> 100	> 100	> 100	> 100	> 100	> 100	> 100	> 100	> 100	> 100
Cn1c(=O)c2[nH]cnc2n(C)c1=O	> 100	> 100	> 100	> 100	> 100	> 100	> 100	> 100	> 100	> 100
O=C(NC(Cc1c[nH]c2ccccc12)C(=O)O)/C(=C/c1ccccc1)NC(=O)c1ccccc1 (stereo unspecified)	> 100	> 100	> 100	> 100	> 100	> 100	> 100	> 100	> 100	> 100
CCOC(=O)c1c(C)n(CCN2CCN(C)CC2)c2ccc(OC)cc12	> 100	39.4	> 100	> 100	> 100	> 100	31.1	> 100	> 100	68
CC(CN(C)C)C(O)(c1ccccc1)c1ccccc1 (stereo unspecified)	> 100	> 100	> 100	> 100	> 100	> 100	> 100	> 100	> 100	> 100
COc1cc(/C=C2\N=C(c3ccccc3)N(c3ccc(C(=O)c4ccccc4)cc3N3C(=O)/C(=C/c4cc(OC)c(OC)c(OC)c4)N=C3c3ccccc3)C2=O)cc(OC)c1OC	71.6	14.9	52.2	46	89.1	74.8	33.4	23.8	42.3	39.6
COC(=O)C1CC(C=O)=C(SC)N1 (stereo unspecified)	> 50	> 50	> 50	> 50	–	> 50	> 50	> 50	> 50	> 50
C=C(Cl)C(=C)CCC(Cl)C(C)(C)Cl (stereo unspecified)	> 100	> 100	> 100	> 100	> 100	> 100	> 100	> 100	> 100	> 100
Cc1cccc(/C=N/NC(=S)NC(C)(C)C)n1	> 100	> 100	> 100	> 100	> 100	> 100	> 100	> 100	> 100	> 100
CCCNC(=O)Cn1c(-c2ccccc2)cc2ccccc21	> 100	> 100	70.4	> 100	> 100	> 100	> 100	> 100	> 100	> 100
CNc1ccc([N+](=O)[O-])cc1C(=O)N1CCC[C@H]1CO	> 100	> 100	> 100	> 100	> 100	> 100	> 100	> 100	> 100	> 100
CCSc1nn(-c2c3ccccc3nc3ccccc23)c(=S)s1	> 100	> 100	> 100	> 100	> 100	> 100	> 100	> 100	> 100	> 100

Reference: PubChem BioAssay (NCI)
